Experimental data as given in patent publication US7226923B2, “Phthalazinone derivatives” (Hoffman-La Roche Inc., priority 2004, dated 2007).

What was measured:
[1] = target: T1, Aurora A (Homo sapiens, UniProt O14965); experiment: IC50 determination for inhibitors of Aurora A (96 MTP-ELISA); type: biochemical; details: His4-tagged full-length Aurora A 250 ng/ml, PKB-GSK2 200 nM, ATP 4 μM, 90 min at room temperature, read-out: IC50 Aurora A kinase inhibition
T1 construct: C-terminally Histidine4 (His4)-tagged Aurora A full-length protein
T1 sequence (O14965 1-403): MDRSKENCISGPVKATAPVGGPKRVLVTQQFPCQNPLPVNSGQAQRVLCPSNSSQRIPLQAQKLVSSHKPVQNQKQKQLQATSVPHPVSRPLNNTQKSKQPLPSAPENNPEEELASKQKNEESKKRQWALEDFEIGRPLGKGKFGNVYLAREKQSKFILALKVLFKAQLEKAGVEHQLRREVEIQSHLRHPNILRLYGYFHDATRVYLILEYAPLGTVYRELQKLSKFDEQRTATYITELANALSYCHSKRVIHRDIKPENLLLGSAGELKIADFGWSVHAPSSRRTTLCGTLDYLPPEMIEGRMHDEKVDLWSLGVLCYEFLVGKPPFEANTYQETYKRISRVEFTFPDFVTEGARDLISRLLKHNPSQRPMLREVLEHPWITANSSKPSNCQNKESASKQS
Method: IC50 Determination for Inhibitors of Aurora A
• Aurora A is a serine threonine kinase involved in spindle assembly and chromosome segregation.
The assay is a typically ELISA-type assay where biotinylated substrate (PKB-GSK2) is phosphorylated. Phosphorylation is detected by peroxidase (POD) labelled polyclonal antibody (PAK<M-Ig>S-IgG-POD) and phosphopeptide monoclonal antibody (Mab) (MAK<P-GSK>M-27E5-IgG). The assay is validated for IC50-determination.
Method • This assay is performed in 96-well format for IC50 determination with 5 samples (each with 8 concentrations by twofold testing), 100 μl incubation volume and the following plate layout: […]

[2] = test system: HCT 116 cells; experiment: CellTiter-Glo assay in HCT 116 cells; type: cell-based, human; details: Homo sapiens, HCT-116, 120 h, 5 days incubation, 30 μM to 0.0015 μM
Excerpt: CellTiter-Glo™ Assay in HCT 116 Cells
The CellTiter-Glo™ Luminescent Cell Viability Assay (Promega) is a homogeneous method of determining the number of viable cells in culture based on quantitation of the ATP present, which signals the presence of metabolically active cells.
HCT 116 cells (human colon carcinoma, ATCC-No. CCl-247) were cultivated in RPMI 1640 medium with GlutaMAX™ I (Invitrogen, Cat-No. 61870-010), 2.5% Fetal Calf Serum (FCS, Sigma Cat-No. F4135 (FBS)); 100 Units/ml penicillin/100 μg/ml streptomycin (=Pen/Strep from Invitrogen Cat. No. 15140). For the assay the cells were seeded in 384 well plates, 1000 cells per well, in the same medium. The next day the test compounds were added in various concentrations ranging from 30 μM to 0.0015 μM (10 concentrations, 1:3 diluted). After 5 days the CellTiter-Glo™ assay was done according to the instructions of the manufacturer (CellTiter-Glo™ Luminescent Cell Viability Assay, from Promega). In brief: the cell-plate was equilibrated to room temperature for approximately 30 minutes and than the CellTiter-Glo™ reagent was added. The contents were carefully mixed for 15 minutes to induce cell lysis. After 45 minutes the luminescent signal was measured in Victor 2, (scanning multiwell spectrophotometer, Wallac).
1st. Day: • Medium: RPMI 1640 with GlutaMAX™ I (Invitrogen, Cat-Nr. 61870), 5% FCS (Sigma Cat.-No. F4135), Pen/Strep (Invitrogen, Cat No. 15140). • HCT116 (ATCC-No. CCl-247): 1000 cells in 60 μl per well of 384 well plate (Greiner 781098, μClear-plate white) • After seeding incubate plates 24 h at 37° C., 5% CO2
2nd. Day: Induction (Treatment with Compounds, 10 Concentrations):
In order to achieve a final concentration of 30 μM as highest concentration 3.5 μl of 10 mM compound stock solution were added directly to 163 μl media. Then step e) of the dilution procedure described below, was followed.

| SMILES | IC50 [1] [nM] | IC50 [2] [nM] |
| --- | --- | --- |
| Cc1cc(Nc2nn(-c3ccccc3Cl)c(=O)c3ccccc23)n[nH]1 [Example R-4, 2-(2-Chloro-phenyl)-4-(5-methyl-1H-pyrazol-3-ylamino)-2H-phthalazin-1-one] | 1 to 100 | 100 to 10000 |
| Cc1cc(Nc2nn(C(C)C)c(=O)c3cc(N(C)C(=O)OC(C)(C)C)ccc23)[nH]n1 [Example I-14, [3-Isopropyl-1-(5-methyl-2H-pyrazol-3-ylamino)-4-oxo-3,4-dihydro-phthalazin-6-yl]-methyl-carbamic acid tert-butyl ester] | 1 to 100 | 100 to 10000 |
| Cc1cc(Nc2nn(Cc3ccccc3)c(=O)c3ccccc23)n[nH]1 [Example A-2, 2-Benzyl-4-(5-methyl-1H-pyrazol-3-ylamino)-2H-phthalazin-1-one] | 65 | 100 to 10000 |
| Cc1cc(Nc2nn(C(C)C)c(=O)c3c(N4CCOCC4)cccc23)n[nH]1 [Example F-3, 2-Isopropyl-4-(5-methyl-1H-pyrazol-3-ylamino)-8-morpholino-2H-phthalazin-1-one] | 1 to 100 | 100 to 10000 |
| Cc1cc(Nc2nn(C(C)C)c(=O)c3cc(F)ccc23)n[nH]1 [Example E-2, 7-Fluoro-2-isopropyl-4-(5-methyl-1H-pyrazol-3-ylamino)-2H-phthalazin-1-one] | 1 to 100 | 100 to 10000 |
| Cc1cc(Nc2nn(-c3ccccc3)c(=O)c3ccc(N)cc23)n[nH]1 [Example Z-1, 6-Amino-4-(5-methyl-1H-pyrazol-3-ylamino)-2-phenyl-2H-phthalazin-1-one] | 100 to 1000 | 100 to 10000 |
| COCCn1nc(Nc2cc(C)n[nH]2)c2ccccc2c1=O [Example O-1, 2-(2-Methoxyethyl)-4-(5-methyl-2H-pyrazol-3-ylamino)-2H-phthalazin-1-one] | 100 to 1000 | 10000 to 100000 |
| Cc1cc(Nc2nn(C(C)C)c(=O)c3cc(N4CCOCC4)ccc23)n[nH]1 [Example F-1, 2-Isopropyl-4-(5-methyl-1H-pyrazol-3-ylamino)-7-morpholino-2H-phthalazin-1-one] | 1 to 100 | 100 to 10000 |
| CC(=O)N1CCN(C(=O)c2ccc3c(Nc4cc(C)[nH]n4)nn(C(C)C)c(=O)c3c2)CC1 [Example M-7, 7-(4-Acetyl-piperazine-1-carbonyl)-2-isopropyl-4-(5-methyl-1H-pyrazol-3-ylamino)-2H-phthalazin-1-one] | 1 to 100 | 10000 to 100000 |
| Cc1cc(Nc2nn(Cc3csc(C)n3)c(=O)c3ccccc23)n[nH]1 [Example A-16, 4-(5-Methyl-1H-pyrazol-3-ylamino)-2-(2-methyl-thiazol-4-ylmethyl)-2H-phthalazin-1-one] | 100 to 1000 | 100 to 10000 |
| COCc1ccc2c(Nc3cc(C)[nH]n3)nn(C(C)C)c(=O)c2c1 [Example K-1, 2-Isopropyl-7-methoxymethyl-4-(5-methyl-1H-pyrazol-3-ylamino)-2H-phthalazin-1-one] | 1 to 100 | 100 to 10000 |
| Cc1cc(Nc2nn(-c3ccc(N4CCOCC4)cc3)c(=O)c3ccccc23)n[nH]1 [Example U-2, 4-(5-Methyl-1H-pyrazol-3-ylamino)-2-(4-morpholin-4-yl-phenyl)-2H-phthalazin-1-one] | 1 to 100 | 100 to 10000 |
| Cc1cc(Nc2nn(C(C)C)c(=O)c3cc(N(C)C(=O)NC(C)C)ccc23)n[nH]1 [Example I-6, 3-Isopropyl-1-[3-isopropyl-1-(5-methyl-1H-pyrazol-3-ylamino)-4-oxo-3,4-dihydro-phthalazin-6-yl]-1-methyl-urea] | 1 to 100 | 100 to 10000 |
| Cc1cc(Nc2nn(-c3ccc(C(C)C)cc3)c(=O)c3ccccc23)[nH]n1 [Example P-1, 2-(4-Isopropyl-phenyl)-4-(5-methyl-2H-pyrazol-3-ylamino)-2H-phthalazin-1-one] | 1 to 100 | 100 to 10000 |
| Cc1cc(Nc2nn(C(C)C)c(=O)c3c(N(C)C)cccc23)n[nH]1 [Example F-8, 2-Isopropyl-4-(5-methyl-1H-pyrazol-3-ylamino)-8-dimethylamino-2H-phthalazin-1-one] | 1 to 100 | 420 |
| Cc1cc(Nc2nn(C(C)C)c(=O)c3ccc(CO)cc23)n[nH]1 [Example M-10, 6-Hydroxymethyl-2-isopropyl-4-(5-methyl-1H-pyrazol-3-ylamino)-2H-phthalazin-1-one] | 100 to 1000 | 100 to 10000 |
| Cc1cc(Nc2nn(Cc3ccccn3)c(=O)c3ccccc23)[nH]n1 [Example A-22, 4-(5-Methyl-2H-pyrazol-3-ylamino)-2-pyridin-2-ylmethyl-2H-phthalazin-1-one] | 1 to 100 | 100 to 10000 |
| Cc1cc(Nc2nn(C)c(=O)c3ccccc23)n[nH]1 [Example A-3, 2-Methyl-4-(5-methyl-1H-pyrazol-3-ylamino)-2H-phthalazin-1-one] | 100 to 1000 | 100 to 10000 |
| CSc1ccc2c(Nc3cc(C)[nH]n3)nn(C(C)C)c(=O)c2c1 [Example H-1, 2-Isopropyl-4-(5-methyl-1H-pyrazol-3-ylamino)-7-methylsulfanyl-2H-phthalazin-1-one] | 1 to 100 | 100 to 10000 |
| Cc1cc(Nc2nn(C(C)C)c(=O)c3cc(N4CCN(C)CC4)ccc23)[nH]n1 [Example F-5, 2-Isopropyl-7-(4-methyl-piperazin-1-yl)-4-(5-methyl-2H-pyrazol-3-ylamino)-2H-phthalazin-1-one] | 1 to 100 | 100 to 10000 |
| Cc1cc(Nc2nn(CC(=O)c3ccc(OC(F)(F)F)cc3)c(=O)c3ccccc23)n[nH]1 [Example E-6, 4-(5-Methyl-1H-pyrazol-3-ylamino)-2-[2-oxo-2-(4-trifluoromethoxy-phenyl)-ethyl]-2H-phthalazin-1-one] | 100 to 1000 | 10000 to 100000 |
| Cc1cc(Nc2nn(Cc3ccccc3)c(=O)c3cc(N4CCOCC4)ccc23)n[nH]1 [Example F-4, 2-Benzyl-4-(5-methyl-1H-pyrazol-3-ylamino)-7-morpholino-2H-phthalazin-1-one] | 1 to 100 | 100 to 10000 |
| Cc1cc(Nc2nn(CC(O)c3ccccc3)c(=O)c3ccccc23)n[nH]1 (stereo not drawn) [Example E-13, 2-(2-Hydroxy-2-phenyl-ethyl)-4-(5-methyl-1H-pyrazol-3-ylamino)-2H-phthalazin-1-one] | 100 to 1000 | 10000 to 100000 |
| Cc1cc(Nc2nn(C(C)C)c(=O)c3cc(C(N)=O)ccc23)n[nH]1 [Example N-1, 3-Isopropyl-1-(5-methyl-1H-pyrazol-3-ylamino)-4-oxo-3,4-dihydro-phthalazine-6-carboxylic acid amide] | 1 to 100 | 100 to 10000 |
| Cc1cccc(-n2nc(Nc3cc(C)[nH]n3)c3ccccc3c2=O)c1 [Example B-2, 4-(5-Methyl-1H-pyrazol-3-ylamino)-2-m-tolyl-2H-phthalazin-1-one] | 1 to 100 | 780 |
| COC(=O)c1ccc2c(Nc3cc(C)[nH]n3)nn(C(C)C)c(=O)c2c1 [Example M-8, 3-Isopropyl-1-(5-methyl-1H-pyrazol-3-ylamino)-4-oxo-3,4-dihydro-phthalazine-6-carboxylic acid methyl ester] | 1 to 100 | 100 to 10000 |
| Cc1cc(Nc2nn(-c3ccc(S(=O)(=O)C(C)(C)C)cc3)c(=O)c3ccccc23)n[nH]1 [Example ZA-1, 2-[4-(2-Methyl-propane-2-sulfonyl)-phenyl]-4-(5-methyl-1H-pyrazol-3-ylamino)-2H-phthalazin-1-one] | 1 to 100 | 100 to 10000 |
